# Patent US7851467B2, “Carbamate compounds as 5-HT4 receptor agonists” (Theravance, Inc., priority 2005, dated 2010)
# Key:
# [1] = tested on: Caco-2 (colon, adenocarcinoma; human) cell monolayer; assay: Caco-2 permeation assay (in vitro model of oral bioavailability); assay type: in vitro ADME; details: 100 μM test compound, 37° C., 60 min
# Procedure: Assay 5: In Vitro Model of Oral Bioavailability: Caco-2 Permeation Assay
# The Caco-2 permeation assay was performed to model the ability of test compounds to pass through the intestine and get into the blood stream after oral administration. The rate at which test compounds in solution permeate a cell monolayer designed to mimic the tight junction of human small intestinal monolayers was determined.
# Caco-2 (colon, adenocarcinoma; human) cells were obtained from ATCC (American Type Culture Collection; Rockville, Md.). For the permeation study, cells were seeded at a density of 63,000 cells/cm^2 on pre-wetted transwells polycarbonate filters (Costar; Cambridge, Mass.). A cell monolayer was formed after 21 days in culture. Following cell culture in the transwell plate, the membrane containing the cell monolayer was detached from the transwell plate and inserted into the diffusion chamber (Costar; Cambridge, Mass.). The diffusion chamber was inserted into the heating block which was equipped with circulating external, thermostatically regulated 37° C. water for temperature control. […]
# The permeation study was performed with test compound concentrations at 100 μM and with ^14C-mannitol to monitor the integrity of the monolayer. […] Samples were analyzed by HPLC or liquid scintillation counting for test compound and mannitol concentrations. The permeation coefficient (Kp) in cm/sec was calculated. […]
# [2] = biological target: T1, human 5-HT4(c) receptor (Homo sapiens, UniProt Q13639); assay: Whole-cell cAMP accumulation flashplate assay with HEK-293 cells expressing human 5-HT4(c) receptors; assay type: cell-based; details: cell line (1) having a density of about 0.5-0.6 μmol/mg protein, read-out: pEC50 value (converted)
# T1 construct: expressed in transfected cells; host or cells: HEK-293
# Procedure: Assay 3: Whole-Cell cAMP Accumulation Flashplate Assay with HEK-293 Cells Expressing Human 5-HT4(c) Receptors
# In this assay, the functional potency of a test compound was determined by measuring the amount of cyclic AMP produced when HEK-293 cells expressing 5-HT4 receptors were contacted with different concentrations of test compound.
# HEK-293 (human embryonic kidney) cells stably-transfected with cloned human 5-HT4(c) receptor cDNA were prepared expressing the receptor at two different densities: (1) at a density of about 0.5-0.6 pmol/mg protein, as determined using a [^3H]-GR113808 membrane radioligand binding assay, and (2) at a density of about 6.0 pmol/mg protein. […]
# Cells were grown to roughly 60-80% confluency. […] The cells were counted with a Coulter counter (count above 8 μm, flask yield was 1-2×10^7 cells/flask). […]
# Cells were grown and prepared as described above. […] Bound radioactivity was quantified by scintillation proximity spectroscopy using the Topcount (Packard BioScience Co., Meriden, Conn.).
# The amount of cAMP produced per mL of reaction was extrapolated from the cAMP standard curve, according to the instructions provided in the manufacturer's user manual. Data were analyzed by nonlinear regression analysis with the GraphPad Prism Software package using the 3-parameter sigmoidal dose-response model (slope constrained to unity). […]
# T1 sequence (Q13639 1-380 isoform Q13639-4): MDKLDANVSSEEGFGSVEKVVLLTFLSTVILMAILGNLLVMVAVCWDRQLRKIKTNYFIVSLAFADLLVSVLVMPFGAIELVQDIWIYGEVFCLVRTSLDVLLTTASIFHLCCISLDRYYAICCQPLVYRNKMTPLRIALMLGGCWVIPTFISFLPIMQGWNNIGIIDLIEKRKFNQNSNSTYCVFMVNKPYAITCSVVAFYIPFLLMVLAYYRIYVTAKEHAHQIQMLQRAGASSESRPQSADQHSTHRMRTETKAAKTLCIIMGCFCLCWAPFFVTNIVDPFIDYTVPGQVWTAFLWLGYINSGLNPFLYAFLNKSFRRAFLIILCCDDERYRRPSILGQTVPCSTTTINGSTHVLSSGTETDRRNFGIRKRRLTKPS
smiles,measurement,setting,value
"CC(C)n1c(=O)n(C(=O)N[C@H]2C[C@H]3CC[C@@H](C2)N3CCCOC(=O)N2CCN(C(=O)C3CCCO3)CC2)c2ccccc21 (stereo partly drawn) [Example 1, 4-(tetrahydrofuran-2-carbonyl)piperazine-1-carboxylic acid 3-{(1S,3R,5R)-3-[(3-isopropyl-2-oxo-2,3-dihydrobenzoimidazole-1-carbonyl)amino]-8-aza-bicyclo[3.2.1]oct-8-yl}propyl ester]",Kp value (permeation coefficient),[1],60 ×10⁻⁶ cm/s
same,EC50,[2],3.98 nM
